≈ marks a conversion by molar mass, not a printed value.
Tests used:
Assay type in all cases: functional
[1] = test system: Staphylococcus haemolyticus; assay: Antimicrobial activity against Staphylococcus haemolyticus clinical isolates by broth microdilution method
[2] = test system: Staphylococcus epidermidis; assay: Antimicrobial activity against oxacillin-resistant Staphylococcus epidermidis clinical isolates by broth microdilution method
[3] = test system: Staphylococcus haemolyticus; assay: Antimicrobial activity against Staphylococcus haemolyticus clinical isolates assessed as percent susceptible isolates by broth microdilution method
Staphylococcus aureus [4] = assay: Antimicrobial activity against oxacillin-susceptible Staphylococcus aureus clinical isolates assessed as percent susceptible isolates by broth microdilution method
Staphylococcus aureus [5] = assay: Antimicrobial activity against oxacillin-susceptible Staphylococcus aureus clinical isolates by broth microdilution method
[6] = test system: Staphylococcus haemolyticus; assay: Antimicrobial activity against oxacillin-resistant Staphylococcus haemolyticus clinical isolates assessed as percent susceptible isolates by broth microdilution method
[7] = test system: Staphylococcus epidermidis; assay: Antimicrobial activity against Staphylococcus epidermidis clinical isolates assessed as resistant isolates by broth microdilution method
[8] = test system: Staphylococcus epidermidis; assay: Antimicrobial activity against oxacillin-resistant Staphylococcus epidermidis clinical isolates assessed as resistant isolates by broth microdilution method
[9] = test system: Staphylococcus epidermidis; assay: Antimicrobial activity against Staphylococcus epidermidis clinical isolates by broth microdilution method
[10] = test system: Staphylococcus haemolyticus; assay: Antimicrobial activity against oxacillin-susceptible Staphylococcus haemolyticus clinical isolates assessed as resistant isolates by broth microdilution method
[11] = test system: Staphylococcus epidermidis; assay: Antimicrobial activity against oxacillin-susceptible Staphylococcus epidermidis clinical isolates by broth microdilution method
Staphylococcus aureus [12] = assay: Antimicrobial activity against oxacillin-susceptible Staphylococcus aureus clinical isolates assessed as resistant isolates by broth microdilution method
[13] = test system: Staphylococcus epidermidis; assay: Antimicrobial activity against Staphylococcus epidermidis clinical isolates assessed as percent susceptible isolates by broth microdilution method
[14] = test system: Staphylococcus epidermidis; assay: Antimicrobial activity against oxacillin-susceptible Staphylococcus epidermidis clinical isolates assessed as percent susceptible isolates by broth microdilution method
[15] = test system: Staphylococcus haemolyticus; assay: Antimicrobial activity against oxacillin-resistant Staphylococcus haemolyticus clinical isolates by broth microdilution method
Staphylococcus aureus [16] = assay: Antimicrobial activity against Staphylococcus aureus clinical isolates assessed as resistant isolates by broth microdilution method
Staphylococcus aureus [17] = assay: Antimicrobial activity against oxacillin-resistant Staphylococcus aureus clinical isolates assessed as percent susceptible isolates by broth microdilution method
Staphylococcus aureus [18] = assay: Antimicrobial activity against Staphylococcus aureus clinical isolates assessed as percent susceptible isolates by broth microdilution method
Staphylococcus aureus [19] = assay: Antimicrobial activity against Staphylococcus aureus clinical isolates by broth microdilution method
Staphylococcus aureus [20] = assay: Antimicrobial activity against oxacillin-resistant Staphylococcus aureus clinical isolates by broth microdilution method
[21] = test system: Staphylococcus haemolyticus; assay: Antimicrobial activity against Staphylococcus haemolyticus clinical isolates assessed as resistant isolates by broth microdilution method
[22] = test system: Staphylococcus epidermidis; assay: Antimicrobial activity against oxacillin-susceptible Staphylococcus epidermidis clinical isolates assessed as resistant isolates by broth microdilution method
[23] = test system: Staphylococcus haemolyticus; assay: Antimicrobial activity against oxacillin-susceptible Staphylococcus haemolyticus clinical isolates by broth microdilution method
[24] = test system: Staphylococcus haemolyticus; assay: Antimicrobial activity against oxacillin-resistant Staphylococcus haemolyticus clinical isolates assessed as resistant isolates by broth microdilution method
[25] = test system: Staphylococcus haemolyticus; assay: Antimicrobial activity against oxacillin-susceptible Staphylococcus haemolyticus clinical isolates assessed as percent susceptible isolates by broth microdilution method
[26] = test system: Staphylococcus epidermidis; assay: Antimicrobial activity against oxacillin-resistant Staphylococcus epidermidis clinical isolates assessed as percent susceptible isolates by broth microdilution method
Staphylococcus aureus [27] = assay: Antimicrobial activity against oxacillin-resistant Staphylococcus aureus clinical isolates assessed as resistant isolates by broth microdilution method

Cc1onc(-c2ccccc2)c1C(=O)N[C@@H]1C(=O)N2[C@@H]1SC(C)(C)[C@@H]2C(=O)O [OXACILLIN]
MIC90 [1]: > 8 µg/mL | MIC90 [2]: > 8 µg/mL | Activity [3]: 26.8% | Activity (Staphylococcus aureus [4]): 100% | MIC90 (Staphylococcus aureus [5]): 0.5 µg/mL (≈ 1.25 µM) | Activity [6]: 0% | Percent of isolates resistant [7]: 72.7% | Percent of isolates resistant [8]: 100% | MIC90 [9]: > 8 µg/mL | Activity [10]: 0% | MIC90 [11]: 0.12 µg/mL (≈ 0.299 µM) | Percent of isolates resistant (Staphylococcus aureus [12]): 0% | Activity [13]: 27.3% | Activity [14]: 100% | MIC90 [15]: > 8 µg/mL | Percent resistant isolates (Staphylococcus aureus [16]): 53.8% | Activity (Staphylococcus aureus [17]): 0% | Activity (Staphylococcus aureus [18]): 46.2% | MIC90 (Staphylococcus aureus [19]): > 8 µg/mL | MIC90 (Staphylococcus aureus [20]): > 8 µg/mL | Resistant isolates [21]: 73.2% | Percent of isolates resistant [22]: 0% | MIC90 [23]: 0.25 µg/mL (≈ 0.623 µM) | Activity [24]: 100% | Activity [25]: 100% | Activity [26]: 0% | Percent resistant isolates (Staphylococcus aureus [27]): 100%
